Test results from ChEMBL document CHEMBL1147286, “7-O-methylhorminone and other cytotoxic diterpene quinones from Lepechinia bullata” (1989).
In brackets after ≈: the same amount, converted by molar mass.

How the values were obtained:
[1] = test system: KB; assay: Cytotoxicity against human KB cells; format: functional; conditions: read-out: ED50 (the source's name)
[2] = test system: P388; assay: Cytotoxicity against mouse P388 cells; format: functional; conditions: read-out: ED50 (the source's name)

Structure (SMILES)	EC50 [1]	EC50 [2]
CC(C)C1=C(O)C(=O)C2=C(C=C[C@H]3C(C)(C)CCC[C@]23C)C1=O	5.7 µg/mL (≈ 18.1 µM)	1.6 µg/mL (≈ 5.09 µM)
CO[C@@H]1C[C@H]2C(C)(C)CCC[C@]2(C)C2=C1C(=O)C(C(C)C)=C(O)C2=O	13 µg/mL (≈ 37.5 µM)	4.8 µg/mL (≈ 13.9 µM)
CC(C)C1=C(O)C(=O)C2=C(C1=O)[C@H](O)C[C@H]1C(C)(C)CCC[C@]21C [HORMINONE]	20.2 µg/mL (≈ 60.8 µM)	4.6 µg/mL (≈ 13.8 µM)
